Test results taken from ChEMBL document CHEMBL1149774, “Synthesis of N-(5,7-diamino-3-phenyl-quinoxalin-2-yl)-3,4,5-substituted anilines and N-[4[(5,7-diamino-3-phenylquinoxalin-2-yl)amino]benzoyl]-l-glutamic acid diethyl ester: evaluation of in vitro anti-cancer and anti-folate activities” (Eur J Med Chem, 2008).

What was measured:
Format in all cases: functional
HOP-62 = experiment: Growth inhibition of human HOP62 cells after 48 hrs by SRB staining method; conditions: HOP-62, 48 h
NCI-H226 = experiment: Growth inhibition of human NCI-H226 cells after 48 hrs by SRB staining method; conditions: NCI-H226, 48 h
NCI-H23 = experiment: Growth inhibition of human NCI-H23 cells after 48 hrs by SRB staining method; conditions: NCI-H23, 48 h
NCI-H460 = experiment: Growth inhibition of human NCI-H460 cells after 48 hrs by SRB staining method; conditions: NCI-H460, 48 h
NCI-H522 = experiment: Growth inhibition of human NCI-H522 cells after 48 hrs by SRB staining method; conditions: NCI-H522, 48 h
HCT-15 = experiment: Growth inhibition of human HCT15 cells after 48 hrs by SRB staining method; conditions: HCT-15, 48 h
KM12 = experiment: Growth inhibition of human KM12 cells after 48 hrs by SRB staining method; conditions: KM12, 48 h
SF-295 = experiment: Growth inhibition of human SF295 cells after 48 hrs by SRB staining method; conditions: SF-295, 48 h
SNB-19 = experiment: Growth inhibition of human SNB19 cells after 48 hrs by SRB staining method; conditions: SNB-19, 48 h
LOX IMVI = experiment: Growth inhibition of human LOX IMVI cells after 48 hrs by SRB staining method
Malme-3M = experiment: Growth inhibition of human MALME-3M cells after 48 hrs by SRB staining method
M14 = experiment: Growth inhibition of human M14 cells after 48 hrs by SRB staining method; conditions: M14, 48 h
SK-MEL-2 = experiment: Growth inhibition of human SK-MEL-2 cells after 48 hrs by SRB staining method; conditions: SK-MEL-2, 48 h
SK-MEL-5 = experiment: Growth inhibition of human SK-MEL-5 cells after 48 hrs by SRB staining method; conditions: SK-MEL-5, 48 h
UACC-257 = experiment: Growth inhibition of human UACC257 cells after 48 hrs by SRB staining method; conditions: UACC-257, 48 h
UACC-62 = experiment: Growth inhibition of human UACC62 cells after 48 hrs by SRB staining method; conditions: UACC-62, 48 h
IGROV-1 = experiment: Growth inhibition of human IGROV1 cells after 48 hrs by SRB staining method; conditions: IGROV-1, 48 h
OVCAR-4 = experiment: Growth inhibition of human OVCAR4 cells after 48 hrs by SRB staining method; conditions: OVCAR-4, 48 h
SK-OV-3 = experiment: Growth inhibition of human SKOV3 cells after 48 hrs by SRB staining method; conditions: SK-OV-3, 48 h
786-0 = experiment: Growth inhibition of human 786-0 cells after 48 hrs by SRB staining method; conditions: 786-0, 48 h
A498 = experiment: Growth inhibition of human A498 cells after 48 hrs by SRB staining method; conditions: A498, 48 h
ACHN = experiment: Growth inhibition of human ACHN cells after 48 hrs by SRB staining method
RXF 393 = experiment: Growth inhibition of human RXF393 cells after 48 hrs by SRB staining method; conditions: RXF 393, 48 h
SN12C = experiment: Growth inhibition of human SN12C cells after 48 hrs by SRB staining method
UO-31 = experiment: Growth inhibition of human UO31 cells after 48 hrs by SRB staining method; conditions: UO-31, 48 h
PC-3 = experiment: Growth inhibition of human PC3 cells after 48 hrs by SRB staining method; conditions: PC-3, 48 h
DU-145 = experiment: Growth inhibition of human DU145 cells after 48 hrs by SRB staining method; conditions: DU-145, 48 h
MCF7 = experiment: Growth inhibition of human MCF7 cells after 48 hrs by SRB staining method; conditions: MCF7, 48 h
NCI/ADR-RES = experiment: Growth inhibition of human NCI/ADR-RES cells after 48 hrs by SRB staining method
[1] = Growth inhibition of human HS 578T cells after 48 hrs by SRB staining method
MDA-MB-435 = experiment: Growth inhibition of human MDA-MB-435 cells after 48 hrs by SRB staining method; conditions: MDA-MB-435, 48 h
T47D = experiment: Growth inhibition of human T47D cells after 48 hrs by SRB staining method
HL-60 = experiment: Growth inhibition of human HL60 cells after 48 hrs by SRB staining method; conditions: HL-60, 48 h
[2] = read-out: pLC50 (the source's name) (converted)

## COc1ccc(Nc2nc3cc(N)cc(N)c3nc2-c2ccccc2)cc1
HOP-62
  GI50: 27.5 µM
  LC50: > 100 µM
HOP-62; read-out: pTGI (converted)
  TGI: > 100 µM
NCI-H226
  GI50: 24 µM
  LC50: > 100 µM
NCI-H226; read-out: pTGI (converted)
  TGI: 97.7 µM
NCI-H23
  GI50: 12.6 µM
  LC50: 51.3 µM
NCI-H23; read-out: pTGI (converted)
  TGI: 25.1 µM
NCI-H460
  GI50: 26.9 µM
  LC50 (concentration killing 50% of cells): > 100 µM
NCI-H460; read-out: pTGI (converted)
  TGI: 89.1 µM
NCI-H522
  GI50: 14.8 µM
  LC50: 52.5 µM
NCI-H522; read-out: pTGI (converted)
  TGI: 28.2 µM
HCT-15
  GI50: 15.1 µM
  LC50: > 100 µM
HCT-15; read-out: pTGI (converted)
  TGI: 44.7 µM
KM12
  GI50: 15.8 µM
  LC50: 60.3 µM
KM12; read-out: pTGI (converted)
  TGI: 30.9 µM
SF-295
  GI50: 31.6 µM
  LC50: > 100 µM
SF-295; read-out: pTGI (converted)
  TGI: > 100 µM
SNB-19
  GI50: 33.9 µM
  LC50: > 100 µM
SNB-19; read-out: pTGI (converted)
  TGI: > 100 µM
LOX IMVI
  GI50: 16.2 µM
  LC50: 55 µM
LOX IMVI; read-out: pTGI (converted)
  TGI: 29.5 µM
Malme-3M
  GI50: 15.1 µM
  LC50: 53.7 µM
Malme-3M; read-out: pTGI (converted)
  TGI: 28.2 µM
M14
  GI50: 17.8 µM
  LC50: 75.9 µM
M14; read-out: pTGI (converted)
  TGI: 36.3 µM
SK-MEL-2
  GI50: 15.5 µM
  LC50: 63.1 µM
SK-MEL-2; read-out: pTGI (converted)
  TGI: 31.6 µM
SK-MEL-5
  GI50: 15.1 µM
  LC50: 53.7 µM
SK-MEL-5; read-out: pTGI (converted)
  TGI: 28.8 µM
UACC-257
  GI50: 15.1 µM
  LC50: 52.5 µM
UACC-257; read-out: pTGI (converted)
  TGI: 27.5 µM
UACC-62
  GI50: 17 µM
  LC50: 55 µM
UACC-62; read-out: pTGI (converted)
  TGI: 30.2 µM
IGROV-1
  GI50: 15.5 µM
  LC50: 83.2 µM
IGROV-1; read-out: pTGI (converted)
  TGI: 35.5 µM
OVCAR-4
  GI50: 10.5 µM
  LC50: 46.8 µM
OVCAR-4; read-out: pTGI (converted)
  TGI: 21.9 µM
SK-OV-3
  GI50: 33.1 µM
SK-OV-3; [2]
  CC50: > 100 µM
SK-OV-3; read-out: pTGI (converted)
  TGI: 97.7 µM
786-0
  GI50: 15.8 µM
786-0; [2]
  CC50: 60.3 µM
786-0; read-out: pTGI (converted)
  TGI: 30.9 µM
A498; [2]
  CC50: > 100 µM
A498; read-out: pTGI (converted)
  TGI: > 100 µM
ACHN
  GI50: 15.1 µM
ACHN; [2]
  CC50: > 100 µM
ACHN; read-out: pTGI (converted)
  TGI: 43.7 µM
RXF 393
  GI50: 11 µM
RXF 393; [2]
  CC50: 53.7 µM
RXF 393; read-out: pTGI (converted)
  TGI: 24 µM
SN12C
  GI50: 20.4 µM
SN12C; [2]
  CC50: > 100 µM
SN12C; read-out: pTGI (converted)
  TGI: 57.5 µM
UO-31
  GI50: 16.6 µM
UO-31; [2]
  CC50: 70.8 µM
UO-31; read-out: pTGI (converted)
  TGI: 33.9 µM
PC-3
  GI50: 20.9 µM
PC-3; [2]
  CC50: > 100 µM
PC-3; read-out: pTGI (converted)
  TGI: 47.9 µM
DU-145
  GI50: 38.9 µM
DU-145; [2]
  CC50: > 100 µM
DU-145; read-out: pTGI (converted)
  TGI: > 100 µM
MCF7
  GI50: 14.8 µM
MCF7; [2]
  CC50: 52.5 µM
MCF7; read-out: pTGI (converted)
  TGI: 28.2 µM
NCI/ADR-RES
  GI50: 19.1 µM
NCI/ADR-RES; [2]
  CC50: > 100 µM
NCI/ADR-RES; read-out: pTGI (converted)
  TGI: 44.7 µM
[1]
  GI50: 14.5 µM
[1]; [2]
  CC50: > 100 µM
[1]; read-out: pTGI (converted)
  TGI: 46.8 µM
MDA-MB-435
  GI50: 16.6 µM
MDA-MB-435; [2]
  CC50: 55 µM
MDA-MB-435; read-out: pTGI (converted)
  TGI: 30.2 µM
T47D
  GI50: 17.8 µM
T47D; [2]
  CC50: > 100 µM
T47D; read-out: pTGI (converted)
  TGI: 53.7 µM
HL-60
  GI50: 34.7 µM
HL-60; [2]
  CC50: > 100 µM
HL-60; read-out: pTGI (converted)
  TGI: > 100 µM
